Results from the NIST ThermoML archive (doi:10.1016/j.jct.2014.07.013).
± gives the expanded uncertainty stated by the source.

Settings: Liquid, Closed cell (Static) method

SMILES	vapor or sublimation pressure (258.15 K)	vapor or sublimation pressure (263.15 K)	vapor or sublimation pressure (273.15 K)	vapor or sublimation pressure (283.15 K)
CCC [propane]	291.6 ± 1.1 kPa	345.3 ± 1.1 kPa	474.5 ± 1.2 kPa	636.8 ± 1.4 kPa
FC(F)(F)I [trifluoroiodomethane]	133 ± 1 kPa	160.4 ± 1 kPa	228.4 ± 1.1 kPa	316.5 ± 1.1 kPa
